We go through 5 compounds from patent publication US6294674A, “Dibenzofuran sulfonamide matrix metalloproteinase inhibitors” (priority 1999, dated 2001).

The test system of data set [1] is human ovarian carcinoma xenografts. The conditions noted are these: Davies, et al., Cancer Res., 1993; cited from earlier work.
The target in another data set is T1, MMP01 (Homo sapiens, UniProt P03956).
T1 construct: purchased Washington University School of Medicine, St. Louis, Mo
T1 sequence (P03956 100-469): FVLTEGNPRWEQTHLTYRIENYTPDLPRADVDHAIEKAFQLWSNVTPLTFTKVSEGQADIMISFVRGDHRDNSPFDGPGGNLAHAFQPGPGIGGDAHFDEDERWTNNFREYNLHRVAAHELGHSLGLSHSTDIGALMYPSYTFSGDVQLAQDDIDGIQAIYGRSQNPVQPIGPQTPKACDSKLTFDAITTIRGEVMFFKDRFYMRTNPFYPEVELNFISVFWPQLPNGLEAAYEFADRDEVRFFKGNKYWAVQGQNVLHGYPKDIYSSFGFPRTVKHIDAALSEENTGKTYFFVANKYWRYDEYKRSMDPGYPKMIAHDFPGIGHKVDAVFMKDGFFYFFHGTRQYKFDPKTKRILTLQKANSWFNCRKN
Put plainly: Thiopeptolide assay, MMP01. The format is biochemical. The conditions noted are these: Table 1; read-out: IC50 MMP01.

Data set [2] has as its target gelatinase A catalytic domain (MMP02). Put plainly: Thiopeptolide assay, gelatinase A catalytic domain (GCD, MMP02). The format is biochemical. The conditions noted are these: Table 1; GCD; read-out: IC50 MMP02.
The next data set addresses T2, MMP09 (Homo sapiens, UniProt P14780).
T2 construct: purchased Washington University School of Medicine, St. Louis, Mo
Briefly: Thiopeptolide assay, MMP09. Type of data set: biochemical. The conditions noted are these: Table 1. On the procedure: IC50 values were determined using a thiopeptolide substrate, Ac-Pro-Leu-Gly-thioester-Leu-Leu-Gly-OEt (Ye Q.-Z., Johnson L. L., Hupe D. J., and Baragi V., "Purification and Characterization of the Human Stromelysin Catalytic Domain Expressed in Escherichia coli," Biochemistry, 1992;31:11231-11235). MMP01, MMP07, MMP09, and MMP13 activity was assayed in a method similar to MMP02 and MMP03 (SCD and GCD). MMP01 and MMP09 can be obtained from Washington University School of Medicine, St. Louis, Mo. MMP07 can be obtained in accordance with the known procedure set forth by Ye QZ, Johnson L. L., and Baragi V., "Gene Syntheses and Expression in E. coli for PUMP, a Human Matrix Metalloproteinase" Biochem. and Biophys. Res. Comm., 1992; 186:143-149. MMP 13 can be obtained in accordance with the known procedure set forth by Freije J. M. P., et al., "Molecular Cloning and Expression of Collegenase-3, a Novel Human Matrix Metalloproteinase Produced by Breast Carcinomas" J. Bio. Chem., 1994;269:16766-6773.
Hydrolysis of the thiopeptolide substrate Ac-Pro-Leu-Gly-thioester-Leu-Leu-Gly-OEt (Bachem) is used as the primary screen to determine IC50 values for MMP inhibitors. […] The change in absorbance at 405 riM is monitored on a ThermoMax microplate reader at room temperature continuously for 20 minutes.

The nature of data set [3]: MMP Inhibitor Bioassay (plasma levels after gavage). The format is in vivo. The conditions noted are these: rat, po, 50 mg/kg by gavage. The procedure: Animals are dosed by gavage with either vehicle or compound at 2, 10, or 50 mg/kg. Blood samples are collected from 3-4 animals from each dosing group at 1, 2, 4, 6, and 24 hour postdose, centrifuged, and the plasma immediately frozen at -20° C. Plasma protein is precipitated with an equal volume of acetonitrile and separated by centrifugation at room temperature. The supernate is evaporated to dryness and reconstituted to the original plasma volume with 50 mM Tris, pH 7.6. Ten-fold serial dilutions of the reconstituted plasma samples are prepared in 50 mM Tris, pH 7.6 for dose response assays using the appropriate thiopeptolide assay. The concentration of plasma which yields 50% inhibition of enzyme is determined and used to calculate the inhibitor plasma level from the known IC50 value. […] All control samples are subjected to acetonitrile precipitation and analyzed with the thiopeptolide assay.

Data set [4] has as its target T3, stromelysin-1 catalytic domain (MMP03) (Homo sapiens, UniProt P08254).
T3 construct: SCD (stromelysin-1 catalytic domain); made in house; host or cells: Escherichia coli
Briefly: Thiopeptolide assay, stromelysin-1 catalytic domain (SCD, MMP03). Type of data set: biochemical. As to conditions: Table 1; SCD; read-out: IC50 MMP03.

For a further data set, the target named is T4, MMP07 (Homo sapiens, UniProt P09237).
T4 construct: made in house; host or cells: Escherichia coli
T4 sequence (P09237 95-267): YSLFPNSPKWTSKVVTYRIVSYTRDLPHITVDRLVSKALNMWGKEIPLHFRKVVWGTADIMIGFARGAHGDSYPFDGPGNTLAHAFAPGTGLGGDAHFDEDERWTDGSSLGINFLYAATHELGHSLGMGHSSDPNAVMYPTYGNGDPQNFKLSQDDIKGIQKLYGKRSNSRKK
Briefly: Thiopeptolide assay, MMP07. Type of data set: biochemical. The conditions noted are these: Table 1; read-out: IC50 MMP07.

The next data set concerns MMP13. Briefly: Thiopeptolide assay, MMP13. Type of data set: biochemical, human. The conditions noted are these: Table 1. The procedure:
MMP01, MMP07, MMP09, and MMP13 activity was assayed in a method similar to MMP02 and MMP03 (SCD and GCD). MMP01 and MMP09 can be obtained from Washington University School of Medicine, St. Louis, Mo. MMP07 can be obtained in accordance with the known procedure set forth by Ye QZ, Johnson L. L., and Baragi V., "Gene Syntheses and Expression in E. coli for PUMP, a Human Matrix Metalloproteinase" Biochem. and Biophys. […] MMP 13 can be obtained in accordance with the known procedure set forth by Freije J. M. P., et al., "Molecular Cloning and Expression of Collegenase-3, a Novel Human Matrix Metalloproteinase Produced by Breast Carcinomas" J. Bio.
Hydrolysis of the thiopeptolide substrate Ac-Pro-Leu-Gly-thioester-Leu-Leu-Gly-OEt (Bachem) is used as the primary screen to determine IC50 values for MMP inhibitors. A 100 μL reaction contains 1 mM 5,5'-dithiobis(2-nitrobenzoic acid) (DTNB), 100 μM substrate, 0.1% Brij, enzyme, and inhibitor in the appropriate reaction buffer. Activated full-length enzymes are assayed at 5 nM, Stromelysin Catalytic Domain (SCD) at 10 nM, and Gelatinase A Catalytic Domain (GaCD) at 1 nM. Inhibitors are screened from 100 μM to 1 nM. Full-length enzymes are assayed in 50 mM HEPES, 10 mM CaCl2, pH 7.0; SCD in 50 mM MES, 10 mM CaCl2, pH 6.0; and GaCD in 50 mM MOPS, 10 mM CaCl2, 10 μM ZnCl2, pH 7.0.

For data set [5], the system named is experimental allergic encephalomyelitis (EAE). The conditions noted are these: Gijbels, et al., J. Clin. Invest., 1994; cited from earlier work.
The subject of data set [6] is bovine nasal and pig articular cartilage. The conditions noted are these: Andrews et al. 1992; Ellis et al. 1994; cited from earlier work.

pIC50: −log10 of the molar value.

T2 sequence (P14780 107-707 limits assumed): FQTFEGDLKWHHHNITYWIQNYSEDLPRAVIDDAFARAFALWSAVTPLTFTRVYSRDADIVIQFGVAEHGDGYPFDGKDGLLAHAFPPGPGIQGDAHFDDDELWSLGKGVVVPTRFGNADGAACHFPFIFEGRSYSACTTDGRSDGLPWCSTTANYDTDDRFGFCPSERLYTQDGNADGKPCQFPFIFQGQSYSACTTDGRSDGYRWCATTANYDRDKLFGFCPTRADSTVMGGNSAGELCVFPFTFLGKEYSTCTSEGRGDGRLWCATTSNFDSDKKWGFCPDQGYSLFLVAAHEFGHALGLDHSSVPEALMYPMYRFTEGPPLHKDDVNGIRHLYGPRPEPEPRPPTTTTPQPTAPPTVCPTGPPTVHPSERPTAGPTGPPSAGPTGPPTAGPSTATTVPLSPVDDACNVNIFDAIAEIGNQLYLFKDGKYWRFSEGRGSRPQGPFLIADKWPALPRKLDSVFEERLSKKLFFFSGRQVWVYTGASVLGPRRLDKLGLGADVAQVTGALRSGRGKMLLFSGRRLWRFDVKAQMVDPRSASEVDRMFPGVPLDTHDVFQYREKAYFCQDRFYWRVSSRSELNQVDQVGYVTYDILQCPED
T3 sequence (P08254 100-272 limits assumed): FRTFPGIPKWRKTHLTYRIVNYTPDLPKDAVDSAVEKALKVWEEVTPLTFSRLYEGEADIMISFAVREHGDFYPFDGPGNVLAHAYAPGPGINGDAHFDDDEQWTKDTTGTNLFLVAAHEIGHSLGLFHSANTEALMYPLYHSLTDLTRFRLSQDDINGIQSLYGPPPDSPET

`CNC(=O)[C@H](Cc1ccccc1)NC(=O)[C@H](CC(C)C)[C@H](CSc1cccs1)C(=O)NO` [BB-94]: in data set [1], the survival result is given as “prolonged the survival of mice” and the tumor burden result is recorded as “decreased the tumor burden”.
On to `O=C(O)[C@H](CCc1ccccc1)NS(=O)(=O)c1ccc2oc3ccccc3c2c1` [Example 1, (S)-2-(Dibenzofuran-2-sulfonylamino)-4-phenyl-butyric acid], for which the pIC50 on MMP01 was 4.33; in data set [2] it was 6.57; against MMP09 it was 4.17. For the same compound, the concentration at 24 h in data set [3] (24 hours, read-out: plasma levels at 24 hours postdose) was found to be 29 µM. Further, the Cmax in [3] (at 1 to 4 hours, read-out: peak plasma levels) came out at 71 µM. Also, in [3] (read-out: time of peak plasma levels), the Tmax was in the range of 1 to 4 h.
In the case of `O=C(O)[C@H](CCc1ccccc1)NS(=O)(=O)c1ccc2c(c1)Cc1ccccc1-2` [Example 9, (S)-2-(9H-Fluorene-2-sulfonylamino)-4-phenyl-butyric acid], the pIC50 on MMP01 was 4.31; in [2], 7.62; in data set [4], 7.33; on MMP07, 5.59; at MMP09 it was 4.00; in the data set with MMP13, 6.48.
Consider `CNC(=O)[C@H](Cc1c[nH]c2ccccc12)NC(=O)[C@@H](CC(=O)NO)CC(C)C` [GM6001], for which the “effect on EAE” value in data set [5] was “suppressed the development or reversed the clinical expression of experimental allergic encephalomyelitis (EAE) in a dose dependent manner”.
Consider “TIMP-1: TIMP-1; TIMPs are natural endogenous inhibitors of MMPs”, for which the “formation of collagen fragments” value in data set [6] is given as “prevented the formation of collagen fragments”.
